This is an account of results in US20250144067A1, “PERSONALIZED STARVATION THERAPY FOR CANCER” (Faeth Therapeutics, Inc., priority 2021, published 2025).

In assay [1] the test system is NCI-H292 lung cancer cells. In words: FDA drug screening, complete media vs cholesterol-free media with simvastatin (TABLE 2). Format: cell-based, human. The note with it: for Cholesterol-free media + simvastatin (0.04 μM) / Complete Media: NCI-H292 cells.
In assay [2] the test system is NCI-H292 lung cancer cells. In words: FDA drug screening, complete media vs cholesterol-free media without statin (TABLE 1). Format: cell-based, human.
Setting [3] is: cholesterol-free media with simvastatin 0.04 μM, cell growth value in FDA drug screen.
Where [4] appears, read: complete media, cell growth value in FDA drug screen.
Setting [5] is: complete media minus cholesterol-free media + simvastatin, >0 enhanced anti-cancer activity, about 0 neutral, <0 antagonist.
The mark [6] stands for this setting: NCI-H292 cells, cholesterol-free media without statin, FDA drug library screen.
The mark [7] stands for this setting: NCI-H292 cells, complete media, FDA drug library screen.
Setting [8] is: FDA drug library screen, cholesterol-free media with simvastatin 0.04 μM.
[9] abbreviates: complete media vs cholesterol-free media + simvastatin (0.04 μM), […].
The mark [10] stands for this setting: NCI-H292 cells, cholesterol-free media without statin.
[11] abbreviates: complete vs cholesterol-free media, […].
Where [12] appears, read: complete vs cholesterol-free media, greater than 0 enhanced anti-cancer activity, about 0 neutral, below 0 antagonists.
Setting [13] is: cholesterol-free media with simvastatin 0.04 μM, FDA drug library screen (TABLE 2).
The mark [14] stands for this setting: complete media, FDA drug library screen (TABLE 2).
Setting [15] is: complete media minus cholesterol-free media + simvastatin (0.04 μM), >0 enhanced anti-cancer activity, about 0 neutral, <0 antagonist.
The mark [16] stands for this setting: FDA library drug in cholesterol-free media with simvastatin 0.04 μM.
Where [17] appears, read: FDA library drug in complete media.
[18] abbreviates: Complete minus Cholesterol-free, […].
Where [19] appears, read: complete media vs cholesterol-free media + simvastatin (0.04 μM), >0 enhanced anti-cancer activity, about 0 neutral, <0 antagonist.
The mark [20] stands for this setting: Complete minus Cholesterol-free, greater than 0 enhanced anti-cancer activity, about 0 neutral, below 0 antagonists.
[21] abbreviates: NCI-H292 cells in cholesterol-free media without statin.
Setting [22] is: NCI-H292 cells in complete media.
[23] abbreviates: FDA drug library screen, complete media.

Where a name gives a salt, the structure may show the parent alone.

For the compound `O=C(NCCO[N+](=O)[O-])c1cccnc1` [Nicorandil], the “Cholesterol-free media + simvastatin (0.04 μM)” value in assay [1] (setting [3]) stood at 0.9809. In assay [1] (setting [4]), the “Complete Media” value is listed as 1.055. Moreover, the Difference in assay [1] (setting [5]) turned out to be 0.07; in assay [2] (complete vs cholesterol-free media, >0 enhanced anti-cancer activity, about 0 neutral, <0 antagonist), 0.53. In addition, the Cholesterol-free in assay [2] (setting [6]) came to 0.8284. Also, the Complete in assay [2] (setting [7]) was 1.354.

With `COC(=O)c1cc(OC)c2c(c1-c1c(C(=O)OC)cc(OC)c3c1OCO3)OCO2` [Bifendate], the “Cholesterol-free media + simvastatin (0.04 μM)” value in assay [1] (setting [8]) worked out at 1.269. Also, the Difference in assay [1] (setting [9]) is on record as −0.10; in assay [2] (setting [11]), −0.34. Also, in assay [2] (setting [10]), the Cholesterol-free is given as 1.494. This compound registered a Complete in assay [2] (NCI-H292 cells, complete media) of 1.156.

As for Bedaquiline (fumarate), the “Cholesterol-free media + simvastatin (0.04 μM)” value in assay [1] (setting [3]) turned out to be 0.9095. Besides, the “Complete Media” value in assay [1] (setting [4]) is listed as 0.9785. Also, the Difference in assay [1] (setting [5]) is 0.07; in assay [2] (setting [12]), −0.47. Moreover, the Cholesterol-free in assay [2] (setting [10]) is listed as 1.587. Also, in assay [2] (NCI-H292 cells, complete media), the Complete stood at 1.119.

As for `C#C[C@]1(O)CC[C@H]2[C@@H]3CCc4cc(OC5CCCC5)ccc4[C@H]3CC[C@@]21C` [Quinestrol], the “Cholesterol-free media + simvastatin (0.04 μM)” value in assay [1] (setting [13]) came to 0.01915. Moreover, in assay [1] (setting [14]), the “Complete Media” value is recorded as 0.02153. The results for the Difference in assay [1] (setting [15]) and in assay [2] (setting [12]) were 0.00 and −0.47, respectively. The compound further had a Cholesterol-free in assay [2] (setting [10]) of 1.478. Further, the Complete in assay [2] (NCI-H292 cells, complete media) was found to be 1.012.

With `CCOC(CN1CCN(CC(C)C(=O)c2ccccc2)CC1)c1ccccc1` (stereo not shown) [Eprazinone (dihydrochloride)], in assay [1] (setting [13]), the “Cholesterol-free media + simvastatin (0.04 μM)” value came out at 0.9386. In addition, the “Complete Media” value in assay [1] (setting [14]) worked out at 0.9227. The Difference is −0.02 in assay [1] (setting [15]) and −0.09 in assay [2] (Complete minus Cholesterol-free, greater than 0 enhanced anti-cancer activity, about 0 neutral, below 0 antagonist). For the same compound, the Cholesterol-free in assay [2] (NCI-H292 cells, FDA drug library screen, cholesterol-free media without statin) is listed as 1.265.

Regarding `CNC(=O)c1cnn(-c2nc(N)c3ncn([C@@H]4O[C@H](CO)[C@@H](O)[C@H]4O)c3n2)c1` [Regadenoson], the “Cholesterol-free media + simvastatin (0.04 μM)” value in assay [1] (setting [16]) was determined as 1.362. Also, in assay [1] (setting [17]), the “Complete Media” value worked out at 1.055. The Difference in assay [1] (setting [9]) is −0.31; in assay [2] (setting [18]), −0.21. The compound also yielded a Cholesterol-free in assay [2] (setting [10]) of 1.426. In assay [2] (NCI-H292 cells, complete media), the Complete is recorded as 1.216.

With `C[n+]1ccccc1/C=N/O.[Cl-]` [Pralidoxime (chloride)], the “Cholesterol-free media + simvastatin (0.04 μM)” value in assay [1] (setting [16]) amounted to 1.051. Besides, the “Complete Media” value in assay [1] (setting [17]) is 0.7574. Further, the figures for the Difference in assay [1] (setting [9]) and in assay [2] (setting [18]) were −0.29 and −0.31, respectively. For the same compound, in assay [2] (setting [10]), the Cholesterol-free turned out to be 1.203. Moreover, the Complete in assay [2] (NCI-H292 cells, complete media) is on record as 0.8976.

On to `Cc1cc(C)cc(OCC2CNC(=O)O2)c1` (stereo not shown) [Metaxalone], for which the “Cholesterol-free media + simvastatin (0.04 μM)” value in assay [1] (setting [16]) turned out to be 1.3. The “Complete Media” value in assay [1] (setting [17]) amounted to 1.014. Also, the Difference in assay [1] (setting [19]) was −0.29; in assay [2] (setting [20]), −0.49. The Cholesterol-free in assay [2] (setting [21]) was found to be 1.567. This compound displayed a Complete in assay [2] (setting [22]) of 1.078.

Consider `CS(=O)(=O)n1cc2c(n1)CN([C@H]1CO[C@H](c3cc(F)ccc3F)[C@@H](N)C1)C2` [Omarigliptin], for which the “Cholesterol-free media + simvastatin (0.04 μM)” value in assay [1] (setting [16]) is 1.764. Besides, the “Complete Media” value in assay [1] (setting [17]) turned out to be 1.42. Also, the Difference is −0.34 in assay [1] (setting [19]) and −0.63 in assay [2] (setting [20]). Moreover, the Cholesterol-free in assay [2] (setting [21]) is given as 1.475. Besides, the Complete in assay [2] (setting [22]) is 0.8446.

With Bleomycin (hydrochloride), in assay [1] (setting [8]), the “Cholesterol-free media + simvastatin (0.04 μM)” value came to 0.184. In assay [1] (setting [23]), the “Complete Media” value came out at 0.1023. For the same compound, the figures for the Difference in assay [1] (setting [9]) and in assay [2] (setting [11]) were −0.08 and 0.09, respectively. The same compound came in with a Cholesterol-free in assay [2] (setting [6]) of 0.4328. In addition, in assay [2] (setting [7]), the Complete was determined as 0.5195.

Turning to `CCN(CC)C(=S)SSC(=S)N(CC)CC` [Disulfiram], in assay [1] (setting [8]), the “Cholesterol-free media + simvastatin (0.04 μM)” value is reported as 0.005061. Moreover, the “Complete Media” value in assay [1] (setting [23]) was −0.0784. The Difference is −0.08 in assay [1] (setting [19]) and −0.02 in assay [2] (Complete minus Cholesterol-free, >0 enhanced anti-cancer activity, about 0 neutral, <0 antagonist). Also, in assay [2] (setting [6]), the Cholesterol-free came out at 0.0139. This compound had a Complete in assay [2] (setting [7]) of −0.001922.
